{"source": "patent US20240041838A1", "about": "“METHODS AND COMPOSITIONS FOR INHIBITION OF NEUTROPHIL RECRUITMENT IN MYCOCARDIAL ISCHEMIA-REPERFUSION INJURY” (University of Connecticut, priority 2022, published 2024)", "origin": "cited, not measured here", "tested_on": "I/R-induced ventricular arrhythmia", "conditions": "reported; cited from earlier work"}
{"compound": "CCN(CC)CCCC(C)Nc1nc(C)cc(Nc2ccc3nc(C)cc(N)c3c2)n1", "note": "(stereo not shown) [NSC23766]", "values": [{"measurement": "I/R-induced ventricular arrhythmia", "result": "decreased"}]}
